For this experiment, the system named is L1210 leukemia ip in BDF1 mice, survival T/C. Nature of the experiment: NCI In Vivo Anticancer Drug Screen. Data for tumor model L1210 Leukemia (intraperitoneal) in B6D2F1 (BDF1) mice. Conditions: endpoint: mean survival time, higher = longer survival. The procedure, abridged: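 Read-out is survival time, reported as the treated-group measurement over the vehicle-control measurement.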

Where [1] appears, read: dose: 100.0 mg/kg/injection, schedule: Q04DX003 (ip), vehicle: carboxymethylcellulose (CMC).
Setting [2] is: dose: 200.0 mg/kg/injection, schedule: Q01DX001 (ip), vehicle: carboxymethylcellulose (CMC).
The mark [3] stands for this setting: dose: 200.0 mg/kg/injection, schedule: Q04DX002 (ip), vehicle: carboxymethylcellulose (CMC).
The mark [4] stands for this setting: dose: 200.0 mg/kg/injection, schedule: Q04DX003 (ip), vehicle: carboxymethylcellulose (CMC).
Setting [5] is: dose: 400.0 mg/kg/injection, schedule: Q01DX009 (ip), vehicle: carboxymethylcellulose (CMC).
The mark [6] stands for this setting: dose: 400.0 mg/kg/injection, schedule: Q04DX002 (ip), vehicle: carboxymethylcellulose (CMC).
[7] abbreviates: dose: 400.0 mg/kg/injection, schedule: Q04DX003 (ip), vehicle: carboxymethylcellulose (CMC).
Where [8] appears, read: dose: 20.0 mg/kg/injection, schedule: Q04DX003 (ip), vehicle: saline.
The mark [9] stands for this setting: dose: 75.0 mg/kg/injection, schedule: Q01DX001 (ip), vehicle: saline.
Where [10] appears, read: dose: 100.0 mg/kg/injection, schedule: Q04DX003 (ip), vehicle: saline.
[11] abbreviates: dose: 100.0 mg/kg/injection, schedule: Q04DX003 (ip), vehicle: Klucel (hydroxypropylcellulose) (HPC).
The mark [12] stands for this setting: dose: 200.0 mg/kg/injection, schedule: Q04DX003 (ip), vehicle: Klucel (hydroxypropylcellulose) (HPC).
The mark [13] stands for this setting: dose: 400.0 mg/kg/injection, schedule: Q04DX003 (ip), vehicle: Klucel (hydroxypropylcellulose) (HPC).

Several values for one entry are separate records, joined by “and”; a condition that tells them apart may be missing. Equal entries are not always repeated. Inconclusive results and toxic doses are left out.

On to `CC(=O)Nc1ccc(OCCOC(=O)Nc2ccc(Cl)c(C(F)(F)F)c2)cc1`, for which the T/C is, setting by setting: (dose: 12.5 mg/kg/injection, schedule: Q01DX009 (ip), vehicle: carboxymethylcellulose (CMC)) 95 % of control and 100 % of control; (dose: 25.0 mg/kg/injection, schedule: Q01DX009 (ip), vehicle: carboxymethylcellulose (CMC)) 95 % of control and 97 % of control; (dose: 25.0 mg/kg/injection, schedule: Q04DX002 (ip), vehicle: carboxymethylcellulose (CMC)) 92 % of control and 93 % of control; (dose: 50.0 mg/kg/injection, schedule: Q04DX002 (ip), vehicle: carboxymethylcellulose (CMC)) 95 % of control and 90 % of control; (dose: 100.0 mg/kg/injection, schedule: Q01DX001 (ip), vehicle: carboxymethylcellulose (CMC)) 97 % of control and 101 % of control; under setting [1], 92 % of control and 101 % of control. Besides, the T/C is, setting by setting: under setting [2], 97 % of control and 102 % of control; under setting [3], 94 % of control; under setting [4], 92 % of control; (dose: 400.0 mg/kg/injection, schedule: Q01DX001 (ip), vehicle: carboxymethylcellulose (CMC)) 97 % of control and 87 % of control; under setting [5], 88 % of control and 90 % of control; under setting [6], 94 % of control and 91 % of control. Moreover, the T/C under setting [7] is 92 % of control and 97 % of control.

Turning to `O=c1[nH]nc(-c2ccncc2)s1`, the T/C is 101 % of control under setting [8]; 96 % of control (dose: 40.0 mg/kg/injection, schedule: Q04DX003 (ip), vehicle: saline); 94 % of control under setting [9]; 96 % of control (dose: 75.0 mg/kg/injection, schedule: Q04DX003 (ip), vehicle: saline); 98 % of control under setting [10].

Take `O=C1CC(c2ccc(OCN(CCCl)CCCl)cc2)CC(=O)C1CN(CCCl)CCCl` (stereo not drawn): the T/C is 95 % of control (dose: 0.2 mg/kg/injection, schedule: Q01DX009 (ip), vehicle: carboxymethylcellulose (CMC)); 122 % of control (dose: 0.37 mg/kg/injection, schedule: Q01DX009 (ip), vehicle: saline); 102 % of control (dose: 0.39 mg/kg/injection, schedule: Q01DX009 (ip), vehicle: carboxymethylcellulose (CMC)); 101 % of control (dose: 0.5 mg/kg/injection, schedule: Q01DX009 (ip), vehicle: carboxymethylcellulose (CMC)); 107 % of control (dose: 0.9 mg/kg/injection, schedule: Q01DX009 (ip), vehicle: carboxymethylcellulose (CMC)); 104 % of control (dose: 1.0 mg/kg/injection, schedule: Q01DX009 (ip), vehicle: carboxymethylcellulose (CMC)). Also, the T/C runs as follows: (dose: 1.4 mg/kg/injection, schedule: Q01DX009 (ip), vehicle: carboxymethylcellulose (CMC)) 87 % of control; (dose: 2.0 mg/kg/injection, schedule: Q01DX001 (ip), vehicle: saline) 193 % of control; (dose: 2.0 mg/kg/injection, schedule: Q01DX009 (ip), vehicle: carboxymethylcellulose (CMC)) 114 % of control; (dose: 3.0 mg/kg/injection, schedule: Q01DX009 (ip), vehicle: saline) 106 % of control and 90 % of control; (dose: 4.0 mg/kg/injection, schedule: Q01DX001 (ip), vehicle: saline) 104 % of control and 109 % of control; (dose: 6.0 mg/kg/injection, schedule: Q04DX003 (ip), vehicle: saline) 123 % of control. Moreover, the T/C is, setting by setting: (dose: 6.6 mg/kg/injection, schedule: Q01DX009 (ip), vehicle: carboxymethylcellulose (CMC)) 157 % of control; (dose: 7.5 mg/kg/injection, schedule: Q01DX001 (ip), vehicle: saline) 122 % of control; (dose: 8.58 mg/kg/injection, schedule: Q01DX001 (ip), vehicle: carboxymethylcellulose (CMC)) 124 % of control; (dose: 10.0 mg/kg/injection, schedule: Q01DX009 (ip), vehicle: carboxymethylcellulose (CMC)) 93 % of control; (dose: 13.0 mg/kg/injection, schedule: Q01DX001 (ip), vehicle: carboxymethylcellulose (CMC)) 114 % of control; (dose: 19.5 mg/kg/injection, schedule: Q01DX001 (ip), vehicle: carboxymethylcellulose (CMC)) 118 % of control. Further, the T/C (dose: 0.1 micrograms/kg/injection, schedule: Q01DX001 (ip), vehicle: saline) was 100 % of control; the T/C (dose: 0.2 micrograms/kg/injection, schedule: Q01DX001 (ip), vehicle: saline) is 102 % of control; the T/C (dose: 0.5 micrograms/kg/injection, schedule: Q01DX001 (ip), vehicle: saline) was 100 % of control; the T/C (dose: 1.0 micrograms/kg/injection, schedule: Q01DX001 (ip), vehicle: saline) is 100 % of control.

As for `Cc1ccnc(NS(=O)(=O)c2ccc(N=Nc3c(N)[nH]c(=O)[nH]c3=O)cc2)n1`, the T/C runs as follows: (dose: 100.0 mg/kg/injection, schedule: Q01DX001 (ip), vehicle: saline) 100 % of control; (dose: 200.0 mg/kg/injection, schedule: Q01DX001 (ip), vehicle: saline) 102 % of control; (dose: 400.0 mg/kg/injection, schedule: Q01DX001 (ip), vehicle: saline) 105 % of control.

As to `O=C(C[n+]1ccccc1)c1ccccc1`, the T/C (dose: 25.0 mg/kg/injection, schedule: Q04DX002 (ip), vehicle: saline) was 98 % of control; the T/C (dose: 50.0 mg/kg/injection, schedule: Q04DX002 (ip), vehicle: saline) is 95 % of control; the T/C (dose: 100.0 mg/kg/injection, schedule: Q04DX002 (ip), vehicle: saline) is 98 % of control.

As for `COc1ccc(C(=O)Nc2cccc3ccccc23)cc1`, the T/C is, setting by setting: (dose: 100.0 mg/kg/injection, schedule: Q01DX009 (ip), vehicle: carboxymethylcellulose (CMC)) 95 % of control; (dose: 100.0 mg/kg/injection, schedule: Q04DX002 (ip), vehicle: Klucel (hydroxypropylcellulose) (HPC)) 108 % of control; (dose: 100.0 mg/kg/injection, schedule: Q04DX002 (ip), vehicle: carboxymethylcellulose (CMC)) 93 % of control and 97 % of control; under setting [1], 103 % of control; (dose: 200.0 mg/kg/injection, schedule: Q01DX009 (ip), vehicle: carboxymethylcellulose (CMC)) 98 % of control and 90 % of control; (dose: 200.0 mg/kg/injection, schedule: Q04DX002 (ip), vehicle: Klucel (hydroxypropylcellulose) (HPC)) 102 % of control. The T/C under setting [3] was 95 % of control and 103 % of control; the T/C under setting [4] was 103 % of control; the T/C under setting [5] was 93 % of control and 87 % of control; the T/C (dose: 400.0 mg/kg/injection, schedule: Q04DX002 (ip), vehicle: Klucel (hydroxypropylcellulose) (HPC)) is 112 % of control; the T/C under setting [6] is 100 % of control and 101 % of control; the T/C under setting [7] is 97 % of control.

Consider `CC1=C(Cl)C(=O)C(Cl)=C(Cl)C1=O`, for which the T/C under setting [9] was 103 % of control.

Consider `C[n+]1ccccc1SC12CC3CC(CC(C3)C1)C2`, for which the T/C (dose: 10.0 mg/kg/injection, schedule: Q01DX009 (ip), vehicle: Klucel (hydroxypropylcellulose) (HPC)) is 113 % of control.

In the case of `CCCCCC(CN(C)C)C(O)/C=C/c1ccccc1Cl` (stereo not drawn), the T/C by setting is: (dose: 25.0 mg/kg/injection, schedule: Q01DX009 (ip), vehicle: saline) 102 % of control; (dose: 25.0 mg/kg/injection, schedule: Q04DX003 (ip), vehicle: saline) 96 % of control; (dose: 50.0 mg/kg/injection, schedule: Q01DX009 (ip), vehicle: saline) 94 % of control; (dose: 50.0 mg/kg/injection, schedule: Q04DX003 (ip), vehicle: saline) 97 % of control; under setting [10], 95 % of control and 88 % of control.

As for `O=C(CCc1cccnc1)Nc1ccccc1`, the T/C is 102 % of control under setting [11], 100 % of control under setting [12] and 94 % of control under setting [13].

For the molecule `N#Cc1cnn(C(N)=O)c1N`, the T/C reads like this: under setting [11], 100 % of control; under setting [12], 95 % of control; under setting [13], 100 % of control.

Take `C1=Cc2ccccc2Sc2ccccc21`: the T/C runs as follows: (dose: 50.0 mg/kg/injection, schedule: Q01DX001 (ip), vehicle: carboxymethylcellulose (CMC)) 98 % of control; under setting [2], 98 % of control.

`CCCCCCCCCCCCC[n+]1cccc(C#N)c1`: the T/C is 100 % of control (dose: 5.0 mg/kg/injection, schedule: Q04DX003 (ip), vehicle: saline); 94 % of control (dose: 10.0 mg/kg/injection, schedule: Q01DX001 (ip), vehicle: saline); 96 % of control (dose: 10.0 mg/kg/injection, schedule: Q04DX003 (ip), vehicle: saline); 103 % of control (dose: 20.0 mg/kg/injection, schedule: Q01DX001 (ip), vehicle: saline); 96 % of control under setting [8].

The values above are taken from PubChem BioAssay AID248 (DTP/NCI, 2004).
